The values below come from patent US20230104936A1, “TRPML MODULATORS” (Casma Therapeutics, Inc., priority 2019, published 2023).

The structures appear in SMILES notation.

For this assay, the system named is TFEB. In words: TFEB nuclear translocation assay, HeLa wt cells. The note with it: 2 hrs compound treatment, Table 1 does not say HeLa wt or TRPML1 KO. The assay is classed as cell-based. The procedure, abridged:
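AC50 derived from the ratio of nuclear to perinuclear ring (−5 μm) anti-TFEB immunofluorescence, imaged at ×20 over four fields per well. HeLa wt or TRPML1 KO cells were exposed to compounds for 2 hrs at 37° C, then PFA-fixed and counterstained with Hoechst.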

For orientation: AC50 means the concentration giving half of the maximal activity seen. Low readings indicate greater potency, high ones weaker potency.

In the case of `CC1COCC(C)N1CC1CCN(c2c(F)cccc2NS(=O)(=O)c2ccc(S(=O)(=O)C(F)F)cc2)CC1` (stereo not drawn) [Compound A-866, 4-difluoromethanesulfonyl-N-(2-{4-[(3,5-dimethylmorpholin-4-yl)methyl]piperidin-1-yl}-3-fluorophenyl)benzene-1-sulfonamide], the AC50 (Homo sapiens, HeLa, 2 h) was not above 2 µM.
Take `CN(C)S(=O)(=O)c1ccc(S(=O)(=O)c2ccccc2N2CCC(c3ccc(Cl)cc3F)CC2)cc1` [Compound A-156, 4-((2-(4-(4-chloro-2-fluorophenyl)piperidin-1-yl)phenyl)sulfonyl)-N,N-dimethylbenzenesulfonamide]: the AC50 (Homo sapiens, HeLa, 2 h) lay in the range of 2.01 to 8 µM.
In turn, `O=S(=O)(Nc1cccc(Cl)c1N1CCN(c2ccc(Cl)cc2F)CC1)c1ccc2c(c1)CCC2` [Compound A-288, N-{3-chloro-2-[4-(4-chloro-2-fluorophenyl)piperazin-1-yl]phenyl}-2,3-dihydro-1H-indene-5-sulfonamide] displayed an AC50 (Homo sapiens, HeLa, 2 h) not above 2 µM.
The molecule `CN(C)S(=O)(=O)c1ccc(S(=O)(=O)Nc2ccccc2N2CCC(CCCN3CCOCC3)CC2)cc1` [Compound A-547, N1,N1-dimethyl-N4-(2-{4-[3-(morpholin-4-yl)propyl]piperidin-1-yl}phenyl)benzene-1,4-disulfonamide] came in with an AC50 (Homo sapiens, HeLa, 2 h) not above 2 µM.
As for `COCC1(C)CCN(c2c(NS(=O)(=O)c3ccc(S(=O)(=O)N(C)C)cc3)ccc3nccn23)CC1` [Compound A-813, N4-{5-[4-(methoxymethyl)-4-methylpiperidin-1-yl]imidazo[1,2-a]pyridin-6-yl}-N1,N1-dimethylbenzene-1,4-disulfonamide], the AC50 (Homo sapiens, HeLa, 2 h) was not below 10 µM.
Molecule `O=S(=O)(Nc1ccccc1N1CCC(c2ccc(Cl)cc2F)CC1)c1ccccc1CO` [Compound A-106, N-{2-[4-(4-chloro-2-fluorophenyl)piperidin-1-yl]phenyl}-2-(hydroxymethyl)benzene-1-sulfonamide] registered an AC50 (Homo sapiens, HeLa, 2 h) not below 10 µM.
For the setting “Homo sapiens, HeLa, 2 h”, `O=S(=O)(Nc1ccccc1N1CCC(c2ccc(Cl)cc2F)CC1)c1ccccc1Cl` [Compound A-76, 2-chloro-N-{2-[4-(4-chloro-2-fluorophenyl)piperidin-1-yl]phenyl}benzene-1-sulfonamide] showed an AC50 not below 10 µM.
On the same count and under the same terms, the figure for `CN(C)S(=O)(=O)c1ccc(S(=O)(=O)Nc2ccccc2N2CCC(CO)(c3ccc(F)cc3F)CC2)cc1` [Compound A-161, N4-{2-[4-(2,4-difluorophenyl)-4-(hydroxymethyl)piperidin-1-yl]phenyl}-N1,N1-dimethylbenzene-1,4-disulfonamide] is 2.01 to 8 µM.
With `CC(c1cccc(F)c1N1CCCCC1)S(=O)(=O)c1ccc(S2(=O)=NCCC2)cc1` (single isomer, unassigned) [Compound A-980, 1-(4-((1-(3-fluoro-2-(piperidin-1-yl)phenyl)ethyl)sulfonyl)phenyl)-4,5-dihydro-3H-isothiazole 1-oxide], the AC50 was not below 10 µM.
Take `CN(C)S(=O)(=O)c1ccc(S(=O)(=O)Nc2ccccc2N2CCC(C3CCCO3)CC2)cc1` (stereo not drawn) [Compound A-419, N1,N1-dimethyl-N4-{2-[4-(oxolan-2-yl)piperidin-1-yl]phenyl}benzene-1,4-disulfonamide]: the AC50 (Homo sapiens, HeLa, 2 h) is not above 2 µM.
Consider `Cc1ccc(N2CCOCC2)c(NS(=O)(=O)Cc2ccccc2)c1` [Compound A-628, N-[5-methyl-2-(morpholin-4-yl)phenyl]-1-phenylmethanesulfonamide], for which the AC50 (Homo sapiens, HeLa, 2 h) lay in the range of 2.01 to 8 µM.
The molecule `COCC1(C)CCN(c2ccccc2NS(=O)(=O)Cc2cccc(OC)c2)CC1` [Compound A-596, N-{2-[4-(methoxymethyl)-4-methylpiperidin-1-yl]phenyl}-1-(3-methoxyphenyl)methanesulfonamide] displayed an AC50 (Homo sapiens, HeLa, 2 h) of 2.01 to 8 µM.
The same measure, in the same setting: the figure for `CC1(C)Cc2cc(S(=O)(=O)Nc3ccccc3N3CCCC34CCCOC4)ccc2O1` (stereo not drawn) [Compound A-640, 2,2-dimethyl-N-(2-{7-oxa-1-azaspiro[4.5]decan-1-yl}phenyl)-2,3-dihydro-1-benzofuran-5-sulfonamide] is 2.01 to 8 µM.
`CN(C)C1CC2(CCN(c3ccccc3NS(=O)(=O)c3ccc(S(=O)(=O)N(C)C)cc3)CC2)c2ccccc21` (stereo not drawn) [Compound A-295, N4-{2-[3-(dimethylamino)-2,3-dihydrospiro[indene-1,4′-piperidin]-1′-yl]phenyl}-N1,N1-dimethylbenzene-1,4-disulfonamide]: the AC50 (Homo sapiens, HeLa, 2 h) lay in the range of 2.01 to 8 µM.
Take `CN(C)S(=O)(=O)c1ccc(S(=O)(=O)Cc2cc(Cl)ccc2N2CCOCC2)cc1` [Compound A-312, 4-{[5-chloro-2-(morpholin-4-yl)phenyl]methanesulfonyl}-N,N-dimethylbenzene-1-sulfonamide]: the AC50 (Homo sapiens, HeLa, 2 h) was not below 10 µM.
For the setting “Homo sapiens, HeLa, 2 h”, `CC(C)(C)C(=O)N1CCN(c2ccccc2NS(=O)(=O)c2ccc(C(F)F)cc2)CC1` [Compound A-529, 4-(difluoromethyl)-N-{2-[4-(2,2-dimethylpropanoyl)piperazin-1-yl]phenyl}benzene-1-sulfonamide] returned an AC50 of 2.01 to 8 µM.
On the same count and under the same terms, the figure for `CC(c1cccc(F)c1N1CCC(CN2C[C@@H](C)O[C@@H](C)C2)CC1)S(=O)(=O)c1ccc(N=S(C)(C)=O)cc1` (stereo partly drawn) [Compound A-1002, [(4-{1-[2-(4-{[(2R,6S)-2,6-dimethylmorpholin-4-yl]methyl}piperidin-1-yl)-3-fluorophenyl]ethanesulfonyl}phenyl)imino]dimethyl-λ^6-sulfanone] is not below 10 µM; for `CC(C)(C)C(=O)N1CCN(c2ccccc2NS(=O)(=O)c2ccc(C(C)(C)C)cc2)CC1` [Compound A-516, 4-tert-butyl-N-{2-[4-(2,2-dimethylpropanoyl)piperazin-1-yl]phenyl}benzene-1-sulfonamide] it is 2.01 to 8 µM; for `Cc1nc(C)c(S(=O)(=O)Nc2ccccc2N2CCN(c3ccc(Cl)cc3F)CC2)s1` [Compound A-7, N-{2-[4-(4-chloro-2-fluorophenyl)piperazin-1-yl]phenyl}-2,4-dimethyl-1,3-thiazole-5-sulfonamide] it is not above 2 µM.
On to `Cc1ccc(NS(=O)(=O)c2ccccc2N2CCC(c3ccc(Cl)cc3F)CC2)cc1` [Compound A-111, 2-(4-(4-chloro-2-fluorophenyl)piperidin-1-yl)-N-(p-tolyl)benzenesulfonamide], for which the AC50 (Homo sapiens, HeLa, 2 h) is not below 10 µM.
The same measure, in the same setting: the figure for `O=S(=O)(Nc1cccc(Cl)c1N1CCC(c2c(F)cccc2F)CC1)c1ccc2c(c1)CCC2` [Compound A-298, N-{3-chloro-2-[4-(2,6-difluorophenyl)piperidin-1-yl]phenyl}-2,3-dihydro-1H-indene-5-sulfonamide] is not above 2 µM.
`CC(c1cccc(F)c1N1CCC(C)(C(F)F)CC1)S(=O)(=O)c1ccc(S(=O)(=O)N(C)C)cc1` (single isomer, unassigned) [Compound A-933, 4-((1-(2-(4-(difluoromethyl)-4-methylpiperidin-1-yl)-3-fluorophenyl)ethyl)sulfonyl)-N,N-dimethylbenzenesulfonamide] gave an AC50 not above 2 µM.
As to `C[C@@H]1CN(CC2CCN(c3c(F)cccc3NS(=O)(=O)c3ccc(S(C)(=N)=O)cc3)CC2)C[C@H](C)O1` (stereo partly drawn) [Compound A-841, N-(2-(4-(((2R,6S)-2,6-dimethylmorpholino)methyl)piperidin-1-yl)-3-fluorophenyl)-4-(S-methylsulfonimidoyl)benzenesulfonamide], the AC50 (Homo sapiens, HeLa, 2 h) is 2.01 to 8 µM.
In turn, `CN1CCC2(CCN(c3ccccc3NS(=O)(=O)c3ccc(S(=O)(=O)N(C)C)cc3)CC2)C1` [Compound A-293, N1,N1-dimethyl-N4-(2-{2-methyl-2,8-diazaspiro[4.5]decan-8-yl}phenyl)benzene-1,4-disulfonamide] yielded an AC50 (Homo sapiens, HeLa, 2 h) not below 10 µM.
